Experimental data taken from ChEMBL document CHEMBL3232801, “Oxidative stress in Alzheimer's disease: are we connecting the dots?” (J Med Chem, 2014).

Columns and labels:
[1] = molecular target: T1, Acetylcholinesterase (Homo sapiens, UniProt P22303); assay: Inhibition of AChE (unknown origin)
[2] = molecular target: T1, Acetylcholinesterase; assay: Inhibition of AChE (unknown origin)-mediated amyloid beta aggregation at 100 uM
[3] = molecular target: T2, Amyloid-beta precursor protein (Homo sapiens, UniProt P05067); assay: Inhibition of amyloid beta (unknown origin) aggregation
T2 sequence (P05067 whole entry): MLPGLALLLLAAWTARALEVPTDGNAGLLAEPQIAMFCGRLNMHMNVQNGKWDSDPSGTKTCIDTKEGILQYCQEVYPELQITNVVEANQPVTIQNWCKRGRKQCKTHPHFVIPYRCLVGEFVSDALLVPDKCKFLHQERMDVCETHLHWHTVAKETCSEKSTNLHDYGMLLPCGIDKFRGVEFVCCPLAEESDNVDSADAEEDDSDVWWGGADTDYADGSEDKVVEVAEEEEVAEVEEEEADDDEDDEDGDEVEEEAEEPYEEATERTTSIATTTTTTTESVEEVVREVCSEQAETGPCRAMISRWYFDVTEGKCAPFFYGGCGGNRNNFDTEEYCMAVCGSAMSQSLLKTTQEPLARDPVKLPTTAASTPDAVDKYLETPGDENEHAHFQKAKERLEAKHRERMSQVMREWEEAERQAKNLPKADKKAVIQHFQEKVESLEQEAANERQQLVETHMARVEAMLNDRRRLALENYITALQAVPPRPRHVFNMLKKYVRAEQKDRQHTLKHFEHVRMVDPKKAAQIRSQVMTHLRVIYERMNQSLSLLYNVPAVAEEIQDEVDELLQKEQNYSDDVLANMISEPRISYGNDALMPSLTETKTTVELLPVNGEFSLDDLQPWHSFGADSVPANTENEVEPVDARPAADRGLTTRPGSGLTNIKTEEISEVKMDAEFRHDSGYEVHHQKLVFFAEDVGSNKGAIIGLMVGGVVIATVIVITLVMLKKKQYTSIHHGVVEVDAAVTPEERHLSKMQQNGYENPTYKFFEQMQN

[4] = molecular target: T2, Amyloid-beta precursor protein; assay: Inhibition of amyloid beta (unknown origin) aggregation at 10 uM
[5] = molecular target: T1, Acetylcholinesterase; assay: Inhibition of AChE (unknown origin) assessed as inhibition of ROS production
[6] = molecular target: T2, Amyloid-beta precursor protein; assay: Inhibition of amyloid beta (unknown origin) aggregation at 25 uM

T1 sequence (P22303 whole entry): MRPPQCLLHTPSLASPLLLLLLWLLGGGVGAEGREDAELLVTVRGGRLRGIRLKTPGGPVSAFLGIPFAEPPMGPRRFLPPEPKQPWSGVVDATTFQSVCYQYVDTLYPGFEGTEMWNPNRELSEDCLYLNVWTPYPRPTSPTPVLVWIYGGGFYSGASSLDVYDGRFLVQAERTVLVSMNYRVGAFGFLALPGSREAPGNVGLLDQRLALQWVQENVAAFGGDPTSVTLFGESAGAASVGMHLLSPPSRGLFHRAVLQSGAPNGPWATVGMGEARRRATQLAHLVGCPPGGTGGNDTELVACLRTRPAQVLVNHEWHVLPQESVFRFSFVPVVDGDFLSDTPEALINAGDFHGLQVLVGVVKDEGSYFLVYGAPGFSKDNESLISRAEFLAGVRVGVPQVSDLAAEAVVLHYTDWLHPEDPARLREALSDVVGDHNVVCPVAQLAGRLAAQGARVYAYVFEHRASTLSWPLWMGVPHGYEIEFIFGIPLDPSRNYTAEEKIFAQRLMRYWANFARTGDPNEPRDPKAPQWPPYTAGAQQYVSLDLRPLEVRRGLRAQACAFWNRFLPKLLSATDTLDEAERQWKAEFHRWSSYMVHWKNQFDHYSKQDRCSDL

Compound	IC50 [1]	inhibition [2]	IC50 [3]	inhibition [4]	IC50 [5]	inhibition [6]
c1ccc2c(NCCSSCCNc3c4c(nc5ccccc35)CCCC4)c3c(nc2c1)CCCC3	5.04 nM	52.6%	24200 nM	–	–	–
O=C(CCCOc1cccc2[nH]c3ccccc3c12)NCCCNc1c2c(nc3ccccc13)CCCC2	2.15 nM	57.7%	–	36%	23000 nM	–
COc1cc(/C=C/C(=O)NCCCCCCNc2c3c(nc4ccccc24)CCCC3)ccc1O	11.6 nM	–	–	–	–	100%
